Data: PubChem BioAssay (NCI)
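Grown in 96-well plates, cells were treated for 48 hours with each compound at five concentrations. Insufficient inhibition: endpoint recorded as highest concentration tested. TGI: concentration producing complete growth inhibition.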

Columns and labels:
Experiment in all cases: NCI tumour cell line growth inhibition, 48 h
[1] = system: HOP-18 NSCLC
[2] = system: SF-268 CNS
[3] = system: DMS 273 small cell lung
[4] = system: CCRF-CEM leukemia
[5] = system: NCI/ADR-RES ovarian
[6] = system: OVCAR-3 ovarian
[7] = system: A498 renal
[8] = system: RPMI-8226 leukemia
[9] = system: HOP-92 NSCLC
[10] = system: K-562 leukemia
[11] = system: SNB-19 CNS
[12] = system: UACC-257 melanoma
[13] = system: EKVX NSCLC
[14] = system: IGROV1 ovarian
[15] = system: SK-MEL-5 melanoma
[16] = system: DLD-1 colon
[17] = system: NCI-H23 lung
[18] = system: NCI-H522 lung
[19] = system: SF-295 CNS
[20] = system: KM12 colon
[21] = system: HL-60(TB) leukemia
[22] = system: UACC-62 melanoma
[23] = system: MALME-3M melanoma
[24] = system: M19-MEL melanoma
[25] = system: UO-31 renal
[26] = system: HOP-62 NSCLC
[27] = system: SK-MEL-28 melanoma
[28] = system: HCT-116 colon
[29] = system: DMS 114 small cell lung
[30] = system: NCI-H226 lung
[31] = system: U251 CNS
[32] = system: HCT-15 colon
[33] = system: SW-620 colon
[34] = system: SK-OV-3 ovarian
[35] = system: OVCAR-8 ovarian
[36] = system: SF-539 CNS
[37] = system: XF 498 CNS
[38] = system: OVCAR-5 ovarian
[39] = system: CAKI-1 renal
[40] = system: HCC-2998 colon
[41] = system: OVCAR-4 ovarian
[42] = system: P388/ADR leukemia
[43] = system: RXF 393 renal
[44] = system: NCI-H460 lung
[45] = system: SNB-78 CNS
[46] = system: SN12C renal
[47] = system: LOX IMVI melanoma
[48] = system: SK-MEL-2 melanoma
[49] = system: A549 NSCLC
[50] = system: P388 leukemia
[51] = system: MOLT-4 leukemia
[52] = system: SNB-75 CNS
[53] = system: SN12K1 renal
[54] = system: HT29 colon
[55] = system: KM20L2 colon
[56] = system: MCF7 breast
[57] = system: COLO 205 colon

Cc1c(N=NN(C)C)cc[n+]([O-])c1C
TGI [1]: > 100 µM
TGI [2]: > 100 µM
TGI [3]: > 100 µM
TGI [4]: > 100 µM
TGI [5]: > 100 µM
TGI [6]: > 100 µM
TGI [7]: > 100 µM
TGI [8]: > 100 µM
TGI [9]: > 100 µM
TGI [10]: > 100 µM
TGI [11]: > 100 µM
TGI [12]: > 100 µM
TGI [13]: > 100 µM
TGI [14]: > 100 µM
TGI [15]: > 100 µM
TGI [16]: > 100 µM
TGI [17]: > 100 µM
TGI [18]: > 100 µM
TGI [19]: > 100 µM
TGI [20]: > 100 µM
TGI [21]: > 100 µM
TGI [22]: > 100 µM
TGI [23]: > 100 µM
TGI [24]: > 100 µM
TGI [25]: > 100 µM
TGI [26]: > 100 µM
TGI [27]: > 100 µM
TGI [28]: > 100 µM
TGI [29]: > 100 µM
TGI [30]: > 100 µM
TGI [31]: > 100 µM
TGI [32]: > 100 µM
TGI [33]: > 100 µM
TGI [34]: > 100 µM
TGI [35]: > 100 µM
TGI [36]: > 100 µM
TGI [37]: > 100 µM
TGI [38]: > 100 µM
TGI [39]: > 100 µM
TGI [40]: > 100 µM
TGI [41]: > 100 µM
TGI [42]: > 100 µM
TGI [43]: > 100 µM
TGI [44]: > 100 µM
TGI [45]: > 100 µM
TGI [46]: > 100 µM
TGI [47]: > 100 µM
TGI [48]: > 100 µM
TGI [49]: > 100 µM
TGI [50]: > 100 µM
TGI [51]: > 100 µM
TGI [52]: > 100 µM
TGI [53]: > 100 µM
TGI [54]: > 100 µM
TGI [55]: > 100 µM
TGI [56]: > 100 µM
TGI [57]: > 100 µM

CC(C)[C@](O)(C(=O)OCC1=CCN2CC[C@@H](O)[C@@H]12)[C@H](C)O
TGI [1]: > 375 µM
TGI [2]: > 375 µM
TGI [3]: > 375 µM
TGI [4]: > 375 µM
TGI [5]: > 375 µM
TGI [6]: > 375 µM
TGI [7]: > 375 µM
TGI [8]: > 375 µM
TGI [9]: > 375 µM
TGI [10]: > 375 µM
TGI [11]: > 375 µM
TGI [12]: > 375 µM
TGI [13]: > 375 µM
TGI [14]: > 375 µM
TGI [15]: > 80.8 µM
TGI [16]: > 375 µM
TGI [17]: > 375 µM
TGI [18]: > 375 µM
TGI [19]: > 375 µM
TGI [20]: > 375 µM
TGI [21]: > 375 µM
TGI [22]: > 375 µM
TGI [23]: > 375 µM
TGI [24]: > 256 µM
TGI [25]: > 375 µM
TGI [26]: > 375 µM
TGI [27]: > 375 µM
TGI [28]: > 375 µM
TGI [29]: > 375 µM
TGI [30]: > 375 µM
TGI [31]: > 375 µM
TGI [32]: > 375 µM
TGI [33]: > 237 µM
TGI [34]: > 375 µM
TGI [35]: > 375 µM
TGI [36]: > 375 µM
TGI [37]: > 375 µM
TGI [38]: > 375 µM
TGI [39]: > 375 µM
TGI [40]: > 375 µM
TGI [41]: > 375 µM
TGI [42]: > 375 µM
TGI [43]: > 375 µM
TGI [44]: > 375 µM
TGI [45]: > 375 µM
TGI [46]: > 375 µM
TGI [47]: > 174 µM
TGI [48]: > 375 µM
TGI [49]: > 375 µM
TGI [50]: > 375 µM
TGI [51]: > 375 µM
TGI [52]: > 375 µM
TGI [53]: > 375 µM
TGI [54]: > 375 µM
TGI [55]: > 375 µM
TGI [56]: > 375 µM
TGI [57]: > 375 µM

COC(=O)C1C(O)C(C)C(O)OC1C(C)C(O)C(C)/C=C\C=C(/C)C(=O)Nc1c(C)c(OC(C)=O)c2c(c1O)C(=O)C(C)=C1OCOC(/C(C)=C/C(C)=O)=C12 (stereo unspecified)
TGI [1]: 28.7 µM
TGI [2]: 33.1 µM
TGI [3]: 25 µM
TGI [4]: 34.4 µM
TGI [5]: 30.5 µM
TGI [6]: 20.5 µM
TGI [7]: 30.6 µM
TGI [8]: 28.2 µM
TGI [9]: 22.3 µM
TGI [10]: 51.1 µM
TGI [11]: 30.9 µM
TGI [12]: 23.7 µM
TGI [13]: 20.5 µM
TGI [14]: 26.5 µM
TGI [15]: 23.5 µM
TGI [16]: 19.4 µM
TGI [17]: 27.8 µM
TGI [18]: 7.74 µM
TGI [19]: 26 µM
TGI [20]: 26.5 µM
TGI [21]: 15.3 µM
TGI [22]: 31.1 µM
TGI [23]: 24.8 µM
TGI [24]: 26 µM
TGI [25]: 25.1 µM
TGI [26]: 23.5 µM
TGI [27]: 4.96 µM
TGI [28]: 19.9 µM
TGI [29]: 27.5 µM
TGI [30]: 23.4 µM
TGI [31]: 27.7 µM
TGI [32]: 29 µM
TGI [33]: 20.4 µM
TGI [34]: 40.2 µM
TGI [35]: 30.7 µM
TGI [36]: 23.7 µM
TGI [37]: 24.6 µM
TGI [38]: 25 µM
TGI [39]: 34 µM
TGI [40]: 26.3 µM
TGI [41]: 23 µM
TGI [42]: 39.4 µM
TGI [43]: 24.8 µM
TGI [44]: 26.5 µM
TGI [45]: 24.9 µM
TGI [46]: 21.5 µM
TGI [47]: 26.6 µM
TGI [48]: 20.9 µM
TGI [49]: 35.3 µM
TGI [50]: 12.4 µM
TGI [51]: 33.3 µM
TGI [52]: 29.1 µM
TGI [53]: 25.6 µM
TGI [54]: 26.5 µM
TGI [55]: 24.4 µM
TGI [56]: 26.8 µM
TGI [57]: 20.6 µM
